Laboratory results published in ChEMBL document CHEMBL1201862, “PubChem BioAssay data set” (2004).
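Method: 48-hour compound exposure of cells in 96-well plates, five concentrations, linear interpolation of endpoints. GI50: concentration for 50% inhibition of growth.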 Active and inactive are the calls of the source. Cut-off read from the data, not from the text of the source: active = GI50 up to about 1.1 µM and inactive = higher.

Tests used:
Experiment in all cases: growth of human tumour cells (NCI), 48 h
HCT-15 = test system: HCT-15
NCI-H460 = test system: NCI-H460
SF-295 = test system: SF-295
NCI-H226 = test system: NCI-H226
BT-549 = test system: BT-549
HCC 2998 = test system: HCC 2998
MDA-MB-435 = test system: MDA-MB-435
COLO 205 = test system: COLO 205
MOLT-4 = test system: MOLT-4
CAKI-1 = test system: CAKI-1
SF-539 = test system: SF-539
A549 = test system: A549
HCT-116 = test system: HCT-116
DU-145 = test system: DU-145
EKVX = test system: EKVX
SK-MEL-28 = test system: SK-MEL-28
OVCAR-3 = test system: OVCAR-3
HL-60 = test system: HL-60
UACC-257 = test system: UACC-257
OVCAR-4 = test system: OVCAR-4
NCI-H522 = test system: NCI-H522
SK-OV-3 = test system: SK-OV-3
NCI-H23 = test system: NCI-H23
786-0 = test system: 786-0
OVCAR-5 = test system: OVCAR-5
MCF7 = test system: MCF7
RPMI-8226 = test system: RPMI-8226
IGROV-1 = test system: IGROV-1
MDA-N = test system: MDA-N
UO-31 = test system: UO-31
SW-620 = test system: SW-620
HOP-62 = test system: HOP-62
Malme-3M = test system: Malme-3M
SNB-75 = test system: SNB-75
HT-29 = test system: HT-29
SN12C = test system: SN12C
OVCAR-8 = test system: OVCAR-8
K562 = test system: K562
SF-268 = test system: SF-268
SK-MEL-2 = test system: SK-MEL-2
U-251 = test system: U-251
T47D = test system: T47D
KM12 = test system: KM12
SK-MEL-5 = test system: SK-MEL-5
RXF 393 = test system: RXF 393
MDA-MB-231 = test system: MDA-MB-231
HOP-92 = test system: HOP-92
SR = test system: SR
ACHN = test system: ACHN
SNB-19 = test system: SNB-19
UACC-62 = test system: UACC-62
M14 = test system: M14
NCI/ADR-RES = test system: NCI/ADR-RES
CCRF-CEM = test system: CCRF-CEM
LOX IMVI = test system: LOX IMVI
Hs-578T = test system: Hs-578T
TK-10 = test system: TK-10
PC-3 = test system: PC-3
A498 = test system: A498

Measured: GI50

CC(=O)OCc1ccc(O)c(C=O)c1
46.5 µM: HCT-15
inactive: NCI-H460 > 100 µM | SF-295 > 100 µM | NCI-H226 > 100 µM | BT-549 > 100 µM | HCC 2998 > 100 µM | MDA-MB-435 > 100 µM | COLO 205 > 100 µM | MOLT-4 38.3 µM | CAKI-1 > 100 µM | SF-539 > 100 µM | A549 > 100 µM | HCT-116 40.4 µM | DU-145 > 100 µM | EKVX 28.4 µM | SK-MEL-28 > 100 µM | OVCAR-3 > 100 µM | HL-60 39.6 µM | UACC-257 > 100 µM | OVCAR-4 > 100 µM | NCI-H522 > 100 µM | SK-OV-3 > 100 µM | NCI-H23 > 100 µM | 786-0 > 100 µM | OVCAR-5 > 100 µM | MCF7 37.9 µM | RPMI-8226 > 100 µM | IGROV-1 > 100 µM | MDA-N 64.6 µM | UO-31 56.8 µM | SW-620 > 100 µM | HOP-62 > 100 µM | Malme-3M > 100 µM | SNB-75 > 100 µM | HT-29 > 100 µM | SN12C 84.3 µM | OVCAR-8 96.2 µM | K562 73.6 µM | SF-268 64.9 µM | SK-MEL-2 > 100 µM | U-251 74.8 µM | T47D 51.3 µM | KM12 > 100 µM | SK-MEL-5 > 100 µM | RXF 393 > 100 µM | MDA-MB-231 > 100 µM | HOP-92 43.3 µM | SR 60.3 µM | ACHN > 100 µM | SNB-19 92.3 µM | UACC-62 71.3 µM | M14 25.2 µM | NCI/ADR-RES > 100 µM | CCRF-CEM 46.3 µM | LOX IMVI > 100 µM | Hs-578T > 100 µM | TK-10 > 100 µM | PC-3 88.9 µM

CCCCc1ccc(-n2sc3ncc(C)cc3c2=O)cc1
16.4 µM: HCT-15
inactive: NCI-H460 12.6 µM | SF-295 45.2 µM | NCI-H226 > 100 µM | BT-549 19.1 µM | HCC 2998 37.5 µM | MDA-MB-435 79.8 µM | COLO 205 20.5 µM | MOLT-4 25.2 µM | A549 20.6 µM | HCT-116 78 µM | DU-145 30.3 µM | EKVX 19.5 µM | SK-MEL-28 96.2 µM | OVCAR-3 18.5 µM | HL-60 8.57 µM | OVCAR-4 33.7 µM | NCI-H522 16.3 µM | SK-OV-3 28.6 µM | NCI-H23 30.1 µM | 786-0 34.9 µM | OVCAR-5 22.7 µM | MCF7 19.5 µM | RPMI-8226 22 µM | IGROV-1 21.7 µM | MDA-N 51.5 µM | UO-31 6.1 µM | SW-620 27.4 µM | HOP-62 30.3 µM | Malme-3M 25.8 µM | SNB-75 42.9 µM | SN12C 21.9 µM | OVCAR-8 21 µM | K562 43.9 µM | SK-MEL-2 10.6 µM | U-251 32.7 µM | T47D 22.6 µM | KM12 22.7 µM | SK-MEL-5 21.5 µM | RXF 393 27.2 µM | MDA-MB-231 25.6 µM | HOP-92 26.8 µM | SR 75.5 µM | ACHN 30.9 µM | SNB-19 > 100 µM | UACC-62 32.4 µM | M14 13.4 µM | NCI/ADR-RES 27.6 µM | CCRF-CEM 8.18 µM | LOX IMVI 18.2 µM | Hs-578T > 100 µM | TK-10 29.1 µM | PC-3 15 µM

O=C1c2cscc2C(=O)C1(O)O
45.8 µM: HCT-15
inactive: NCI-H460 > 100 µM | SF-295 > 100 µM | NCI-H226 > 100 µM | BT-549 31.5 µM | A498 > 100 µM | MDA-MB-435 32.6 µM | COLO 205 19.2 µM | MOLT-4 22.5 µM | CAKI-1 30.8 µM | SF-539 > 100 µM | A549 > 100 µM | HCT-116 21.3 µM | DU-145 > 100 µM | EKVX 36.1 µM | SK-MEL-28 > 100 µM | OVCAR-3 25.2 µM | HL-60 26.1 µM | UACC-257 24.9 µM | OVCAR-4 25.6 µM | NCI-H522 18.7 µM | SK-OV-3 > 100 µM | NCI-H23 22.1 µM | 786-0 61.5 µM | OVCAR-5 > 100 µM | MCF7 > 100 µM | RPMI-8226 45 µM | IGROV-1 > 100 µM | MDA-N 40.4 µM | UO-31 27.3 µM | SW-620 20.4 µM | HOP-62 > 100 µM | Malme-3M 23.4 µM | HT-29 70 µM | SN12C 20 µM | OVCAR-8 32.9 µM | K562 33 µM | SF-268 > 100 µM | SK-MEL-2 > 100 µM | U-251 > 100 µM | T47D 18.6 µM | KM12 > 100 µM | SK-MEL-5 > 100 µM | MDA-MB-231 74.1 µM | HOP-92 31.7 µM | SR 19.1 µM | ACHN > 100 µM | SNB-19 > 100 µM | UACC-62 > 100 µM | M14 22.2 µM | NCI/ADR-RES > 100 µM | CCRF-CEM 23.7 µM | LOX IMVI > 100 µM | Hs-578T > 100 µM | TK-10 > 100 µM | PC-3 78 µM

COc1cccc(C(=O)Nc2c3ccccc3nc3ccccc23)c1OC
inactive: NCI-H460 76.2 µM | SF-295 39.1 µM | NCI-H226 > 100 µM | BT-549 > 100 µM | HCC 2998 > 100 µM | MDA-MB-435 > 100 µM | COLO 205 > 100 µM | MOLT-4 > 100 µM | CAKI-1 > 100 µM | SF-539 > 100 µM | A549 84.9 µM | HCT-116 > 100 µM | DU-145 > 100 µM | EKVX > 100 µM | SK-MEL-28 > 100 µM | OVCAR-3 > 100 µM | HL-60 > 100 µM | UACC-257 > 100 µM | OVCAR-4 > 100 µM | NCI-H522 29.2 µM | SK-OV-3 51.9 µM | NCI-H23 > 100 µM | 786-0 52.2 µM | OVCAR-5 > 100 µM | MCF7 > 100 µM | RPMI-8226 > 100 µM | IGROV-1 > 100 µM | MDA-N > 100 µM | UO-31 2.96 µM | SW-620 > 100 µM | HOP-62 45.7 µM | Malme-3M > 100 µM | SNB-75 17.5 µM | HT-29 > 100 µM | SN12C > 100 µM | OVCAR-8 88.9 µM | K562 > 100 µM | SF-268 74.1 µM | SK-MEL-2 > 100 µM | U-251 > 100 µM | T47D > 100 µM | KM12 > 100 µM | SK-MEL-5 29.2 µM | RXF 393 23.4 µM | MDA-MB-231 > 100 µM | SR > 100 µM | ACHN 45.5 µM | SNB-19 62.2 µM | UACC-62 > 100 µM | M14 > 100 µM | NCI/ADR-RES > 100 µM | CCRF-CEM > 100 µM | LOX IMVI > 100 µM | Hs-578T 36.8 µM | TK-10 > 100 µM | PC-3 > 100 µM
> 100 µM: HCT-15

COc1cc2c(c(OC)c1OC)-c1ccc(=O)c(O)cc1[C@@H](NC(C)=O)CC2 [COLCHICEINE]
inactive: NCI-H460 12.3 µM | SF-295 22.2 µM | NCI-H226 19.7 µM | BT-549 14.6 µM | HCC 2998 15.3 µM | A498 18.4 µM | MDA-MB-435 18.4 µM | COLO 205 19.4 µM | MOLT-4 5.42 µM | CAKI-1 12.6 µM | SF-539 19.1 µM | A549 27.7 µM | HCT-116 27.7 µM | DU-145 27.6 µM | EKVX 19.7 µM | SK-MEL-28 42.5 µM | OVCAR-3 29.6 µM | HL-60 4.99 µM | UACC-257 21.2 µM | OVCAR-4 12.6 µM | NCI-H522 12.2 µM | SK-OV-3 40.5 µM | NCI-H23 10.6 µM | 786-0 23.3 µM | OVCAR-5 33.5 µM | MCF7 17 µM | RPMI-8226 11.1 µM | IGROV-1 26.3 µM | MDA-N 16.9 µM | UO-31 17.6 µM | SW-620 26.5 µM | HOP-62 24.9 µM | SNB-75 40.6 µM | HT-29 16.1 µM | SN12C 16.8 µM | OVCAR-8 13.3 µM | K562 15.6 µM | SF-268 25.7 µM | SK-MEL-2 25.5 µM | U-251 15.7 µM | T47D 5.51 µM | KM12 15 µM | SK-MEL-5 7.66 µM | MDA-MB-231 15.4 µM | HOP-92 20.2 µM | SR 2.99 µM | ACHN 18.1 µM | SNB-19 25.4 µM | UACC-62 13.2 µM | M14 24.7 µM | NCI/ADR-RES 6.98 µM | CCRF-CEM 11.9 µM | LOX IMVI 12.6 µM | Hs-578T 21.3 µM | TK-10 37.9 µM | PC-3 17.8 µM
10.7 µM: HCT-15
